Test results as given in US11053219B2, “Substituted pyridines as TYK2 inhibitors” (FronThera U.S. Pharmaceuticals LLC, priority 2018, dated 2021).

How the values were obtained:
JAK2 (JH1 domain) = JAK2 (JH1 domain) (Homo sapiens (Human), UniProt O60674); test: JAK2 JH1 domain binding assay (KINOMEscan)
Method: (§6) The assay is performed by combining three components: DNA-tagged kinase; immobilized ligand; and a test compound. The ability of the test compound to compete with the immobilized ligand is measured via quantitative PCR of the DNA tag.
(§7) The liganded beads were blocked with excess biotin and washed with blocking buffer (SeaBlock (Pierce), 1% BSA, 0.05% Tween 20, 1 mM DTT) to remove unbound ligand and to reduce non-specific binding. […] Test compounds were prepared as 111× stocks in 100% DMSO. All test compounds were shipped to DiscoverX in DMSO with concentration of 10 mM. Kds were determined using an 11-point 3-fold compound dilution series with three DMSO control points. Each compound was tested in duplicate. […] The compounds were then diluted directly into the assays such that the final concentration of DMSO was 0.9%. All reactions performed in polypropylene 384-well plate. Each was a final volume of 0.02 ml. […] The kinase concentration in the eluates was measured by qPCR.
(§8) The amount of kinase measured by qPCR (Signal; y-axis) is plotted against the corresponding compound concentration in nM in log 10 scale (x-axis). Binding constants (Kds) were calculated with a standard dose-response curve using the Hill equation:
(§9) Similar to the method for TYK2 JH2 binding described above, JAK1 JH2 and JAK2 JH1 domain binding assay was performed using DiscoverX's KINOMEscan™, but with change of kinase domain.

[1] = Pharmacokinetic study in cynomolgus monkeys; format: in vivo; settings: cynomolgus monkey, plasma
Method: (§1) The pharmacokinetics of test compounds were evaluated in male C57BL/6 mice, Sprague Dawley rats, Beagle dogs, and cynomolgus monkeys when administered via oral gavage and IV injection. The animals were fasted overnight before administration. Plasma samples were collected predose and at 0.5, 1, 3, 6, 9, 12, and 24 hours postdose. The samples were analyzed by LC/MS/MS and the concentration of test compound at each timepoint was determined by linear regression. Pharmacokinetic parameters were calculated from the plasma concentrations using Pheonix WinNonlin.

[2] = tested on: INFα induced pSTAT5 in human PBMC; test: INFα induced pSTAT5 in human PBMC; format: cell-based; settings: human PBMC, INFα 5000 units/ml; read-out: p-STAT5 IC50
Method: Cells were seeded in a round bottom 96-well plate at the concentration of 200,000 cells/well. A 10-point dilution series of test compound (top dose 10 uM, 1:5 dilution) was added to the well using the liquid dispenser (Tecan D300e) and incubated for 1 hour at 37 C. Then human INFα recombinant protein (R&D Systems) was added to the well at the final concentration of 5000 units/ml and incubated for 15 minutes at 37 C. Cell lysates were prepared and analyzed by Phospho STAT3 (Tyr705) cellular kit (Cisbio) or Phospho STAT5 (Tyr693) Kit (Meso Scale Discovery) following manufacturer's protocol.
For calculation of the inhibition rate, the relative pSTAT signal of each well=pSTAT signal of each well−the average pSTAT signal of baseline. The inhibition %=(the average pSTAT signal of INFα treatment wells−the relative of pSTAT signal in each compound containing well)/the average pSTAT signal of INFα treatment wells*100%

JAK1 (JH2 domain) = JAK1 (JH2 domain) (Homo sapiens (Human), UniProt P23458); test: JAK1 JH2 domain binding assay (KINOMEscan); settings: KINOMEscan; read-out: JAK1 (JH2 domain) binding Kd
Sequence of JAK1 (JH2 domain) (P23458 583-855): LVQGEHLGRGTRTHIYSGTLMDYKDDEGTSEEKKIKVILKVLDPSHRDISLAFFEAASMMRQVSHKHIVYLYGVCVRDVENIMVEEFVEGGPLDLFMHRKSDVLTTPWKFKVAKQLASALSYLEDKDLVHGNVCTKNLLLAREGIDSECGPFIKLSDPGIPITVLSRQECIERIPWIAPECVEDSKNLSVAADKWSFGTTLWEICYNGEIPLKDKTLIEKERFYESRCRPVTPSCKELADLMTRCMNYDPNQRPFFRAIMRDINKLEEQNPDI
Method: as §6, §7, §8, §9

[3] = Pharmacokinetic study in Beagle dogs; format: in vivo; settings: dog, plasma; for Vd: read-out: Vdss
Method: as §1

[4] = Pharmacokinetic study in C57BL/6 mice; format: in vivo; parameters: AUC: unit not given here; settings: for Tmax / bioavailability / half-life / Cmax / clearance / Vd: male, mouse, plasma; for Vd: read-out: Vdss
Method: as §1

TYK2 (JH2 domain) = TYK2 (JH2 domain) (Homo sapiens (Human), UniProt P29597); test: TYK2 JH2 domain binding assay (DiscoverX KINOMEscan); settings: 11-point 3-fold dilution, duplicate
Sequence of TYK2 (JH2 domain) (P29597 589-875): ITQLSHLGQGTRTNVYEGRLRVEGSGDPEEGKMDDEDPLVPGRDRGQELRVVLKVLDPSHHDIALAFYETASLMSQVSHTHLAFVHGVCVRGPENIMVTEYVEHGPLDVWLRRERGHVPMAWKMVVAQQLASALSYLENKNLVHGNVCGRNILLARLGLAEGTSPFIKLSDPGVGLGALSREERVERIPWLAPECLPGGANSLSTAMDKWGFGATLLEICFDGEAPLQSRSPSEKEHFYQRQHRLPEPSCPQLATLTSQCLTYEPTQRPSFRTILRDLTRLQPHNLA

[5] = tested on: IL-2-induced pSTAT5 in human PBMC; test: IL-2-induced pSTAT5 in human PBMC; format: cell-based; settings: IL-2 20 ng/ml
Method: (§2) Fresh Human PBMCs were resuspended in RPMI 1640 medium with 10% FBS. Cells were seeded in a round bottom 96-well plate at the concentration of 200,000 cells/well. A 10-point dilution series of test compound (top dose 10 uM, 1:5 dilution) was added to the well using the liquid dispenser (Tecan D300e) and incubated for 1 hour at 37 C. Then human IL-12 recombinant protein (R&D Systems) was added to the well at the final concentration of 10 ng/ml and incubated for 15 minutes at 37 C. Cell lysates were prepared and analyzed by Phospho STAT4 (Tyr693) Kit (Meso Scale Discovery) following manufacturer's protocol.
(§3) For calculation of the inhibition rate, the relative pSTAT4 signal of each well=pSTAT4 signal of each well−the average pSTAT4 signal of baseline. The inhibition %=(the average pSTAT4 signal of IL-12 treatment wells−the relative of pSTAT4 signal in each compound containing well)/the average pSTAT4 signal of IL-12 treatment wells*100%
(§4) The curve was plotted as the inhibition % (y-axis) vs. compounds concentration (x-axis) and was fitted with log(inhibitor) vs. normalized response—Variable slope by GraphPad Prism7.0. Control is BMS-986165:
(§5) Similar to the method for IL-12 induced pSTAT4 in human PBMC described above, these assays were performed to check if test compounds have cross-activity to JAK1. JAK2 and JAK3 pathways in human PBMC. The procedure is as described with change of stimuli to 10 ng/ml of GM-CSF or 20 ng/ml of IL-2.

[6] = Pharmacokinetic study in Sprague Dawley rats; format: in vivo; settings: rat, plasma; for Vd: read-out: Vdss
Method: as §1

[7] = tested on: GM-CSF-induced pSTAT5 in human PBMC; test: GM-CSF-induced pSTAT5 in human PBMC; format: cell-based; settings: GM-CSF 10 ng/ml
Method: as §2, §3, §4, §5

[8] = Oral (2 mg/kg), NA: no detectable
[9] = iv, I.V. (1 mg/kg), read-out: C0 or Cmax (C0)
[10] = Oral (2 mg/kg), read-out: C0 or Cmax (Cmax)
[11] = Oral (10 mg/kg), read-out: C0 or Cmax (Cmax)
[12] = iv, I.V. (2 mg/kg), read-out: C0 or Cmax (C0)
[13] = Oral (5 mg/kg), read-out: C0 or Cmax (Cmax)

Sequence of JAK2 (JH1 domain) (O60674 849-1124): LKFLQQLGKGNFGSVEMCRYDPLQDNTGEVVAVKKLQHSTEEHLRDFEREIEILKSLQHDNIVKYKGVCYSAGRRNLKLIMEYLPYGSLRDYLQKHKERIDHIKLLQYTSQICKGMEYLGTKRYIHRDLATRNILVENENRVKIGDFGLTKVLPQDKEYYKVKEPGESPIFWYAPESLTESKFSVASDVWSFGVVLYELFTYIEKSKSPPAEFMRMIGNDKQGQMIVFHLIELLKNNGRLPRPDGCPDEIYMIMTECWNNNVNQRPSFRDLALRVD

[2H]C([2H])([2H])CC(=O)c1cnc(NC(=O)C2CC2)cc1Nc1nccc(-c2ncn(C([2H])([2H])[2H])n2)c1OC [Example 200]
Kd (JAK2 (JH1 domain)): 1000 to 10000 nM | AUC [1, 8]: 4060 ± 251 ng·h/mL | Tmax [1, 8]: 2 h | bioavailability [1, 8]: 27.7 ± 1.7% | half-life [1, 8]: 8.6 ± 0.73 h | Cmax ([1]; Oral (2 mg/kg), NA: no detectable, read-out: C0 or Cmax (Cmax)): 384 ± 22 ng/mL | AUC ([1]; iv, I.V. (1 mg/kg)): 7320 ± 202 ng·h/mL | clearance ([1]; iv, I.V. (1 mg/kg)): 1.87 ± 0.21 mL/min/kg | half-life ([1]; iv, I.V. (1 mg/kg)): 9.35 ± 1.57 h | Cmax [1, 9]: 677 ± 81 ng/mL | Vd ([1]; iv, I.V. (1 mg/kg), read-out: Vdss): 1.45 ± 0.18 L/kg | IC50 [2]: < 100 nM | Kd (JAK1 (JH2 domain)): < 100 nM | AUC ([3]; Oral (2 mg/kg)): 2620 ± 258 ng·h/mL | Tmax ([3]; Oral (2 mg/kg)): 1.33 h | bioavailability ([3]; Oral (2 mg/kg)): 82.9 ± 8.2% | half-life ([3]; Oral (2 mg/kg)): 8.51 ± 1.6 h | Cmax [3, 10]: 247 ± 17 ng/mL | AUC ([3]; iv, I.V. (0.5 mg/kg)): 790 ± 196 ng·h/mL | half-life ([3]; iv, I.V. (0.5 mg/kg)): 11.5 ± 1.6 h | Cmax ([3]; iv, I.V. (0.5 mg/kg), read-out: C0 or Cmax (C0)): 29.7 ± 14 ng/mL | Vd ([3]; iv, I.V. (0.5 mg/kg)): 8.37 ± 1.39 L/kg | AUC ([4]; I.V. (2 mg/kg)): 4475 | AUC ([4]; Oral (10 mg/kg)): 19295 | Tmax ([4]; Oral (10 mg/kg)): 0.25 h | bioavailability ([4]; Oral (10 mg/kg)): 85.1% | half-life ([4]; Oral (10 mg/kg)): 2.01 h | Cmax [4, 11]: 4190 ng/mL | clearance ([4]; iv, I.V. (2 mg/kg)): 7.35 mL/min/kg | half-life ([4]; iv, I.V. (2 mg/kg)): 4.62 h | Cmax [4, 12]: 2390 ng/mL | Vd ([4]; iv, I.V. (2 mg/kg)): 1.5 L/kg | Kd (TYK2 (JH2 domain)): ≤ 1 nM | IC50 [5]: 1000 to 10000 nM | AUC ([6]; Oral (5 mg/kg)): 3660 ± 684 ng·h/mL | Tmax ([6]; Oral (5 mg/kg)): 1 h | bioavailability ([6]; Oral (5 mg/kg)): 42.7 ± 8% | half-life ([6]; Oral (5 mg/kg)): 4.22 ± 3.6 h | Cmax [6, 13]: 948 ± 43 ng/mL | AUC ([6]; iv, I.V. (1 mg/kg)): 1710 ± 19 ng·h/mL | clearance ([6]; iv, I.V. (1 mg/kg)): 9.42 ± 0.022 mL/min/kg | half-life ([6]; iv, I.V. (1 mg/kg)): 1.58 ± 0.21 h | Cmax [6, 9]: 1030 ± 47 ng/mL | Vd ([6]; iv, I.V. (1 mg/kg)): 1.24 ± 0.065 L/kg | IC50 [7]: > 10000 nM

[2H]C([2H])([2H])CC(=O)c1cnc(Nc2ccc(C(C)(C)O)c(F)n2)cc1Nc1cccc(-c2ncn(C([2H])([2H])[2H])n2)c1OC [Example 202]
Kd (JAK2 (JH1 domain)): 100 to 1000 nM | IC50 [2]: < 100 nM | Kd (JAK1 (JH2 domain)): < 100 nM | AUC ([3]; Oral (2 mg/kg)): 555 ± 154 ng·h/mL | Tmax ([3]; Oral (2 mg/kg)): 1 h | bioavailability ([3]; Oral (2 mg/kg)): 55 ± 15% | half-life ([3]; Oral (2 mg/kg)): 1.59 ± 0.15 h | Cmax [3, 10]: 156 ± 53 ng/mL | AUC ([3]; iv, I.V. (1 mg/kg)): 504 ± 49 ng·h/mL | clearance ([3]; iv, I.V. (1 mg/kg)): 32.7 ± 3.1 mL/min/kg | half-life ([3]; iv, I.V. (1 mg/kg)): 1.74 ± 0.28 h | Cmax [3, 9]: 469 ± 255 ng/mL | Vd ([3]; iv, I.V. (1 mg/kg)): 4.21 ± 0.19 L/kg | AUC ([4]; I.V. (2 mg/kg)): 1911 | AUC ([4]; Oral (10 mg/kg)): 6395 | Tmax ([4]; Oral (10 mg/kg)): 0.5 h | bioavailability ([4]; Oral (10 mg/kg)): 66.6% | half-life ([4]; Oral (10 mg/kg)): 3.27 h | Cmax [4, 11]: 1900 ng/mL | clearance ([4]; iv, I.V. (2 mg/kg)): 17.3 mL/min/kg | half-life ([4]; iv, I.V. (2 mg/kg)): 0.97 h | Cmax [4, 12]: 3340 ng/mL | Vd ([4]; iv, I.V. (2 mg/kg)): 0.785 L/kg | Kd (TYK2 (JH2 domain)): ≤ 1 nM | IC50 [5]: 100 to 1000 nM | AUC ([6]; Oral (5 mg/kg)): 210 ± 60 ng·h/mL | Tmax ([6]; Oral (5 mg/kg)): 4 ± 2 h | bioavailability ([6]; Oral (5 mg/kg)): 8.35 ± 2.4% | half-life ([6]; Oral (5 mg/kg)): 1.29 ± 0.24 h | Cmax [6, 13]: 50.1 ± 11 ng/mL | AUC ([6]; iv, I.V. (1 mg/kg)): 504 ± 58 ng·h/mL | clearance ([6]; iv, I.V. (1 mg/kg)): 33.1 ± 4 mL/min/kg | half-life ([6]; iv, I.V. (1 mg/kg)): 0.323 ± 0.035 h | Cmax [6, 9]: 1980 ± 101 ng/mL | Vd ([6]; iv, I.V. (1 mg/kg)): 0.653 ± 0.03 L/kg | IC50 [7]: 100 to 1000 nM
